Experimental data reported in patent publication US11981680B2, “Substituted thienopyrroles as PAD4 inhibitors” (BRISTOL-MYERS SQUIBB COMPANY, priority 2018, dated 2024).

Target: human PAD4 (hPAD4) (Homo sapiens (Human), UniProt Q9UM07)
Assay: RFMS Human PAD4 Functional Assay
Format: biochemical
Details: rapid-fire mass spectrum (RFMS) assay; 5 nM hPAD4 enzyme, 250 μM BAEE, 30 min preincubation at 37° C.
Procedure: Compounds of the present invention were assayed as inhibitors of PAD4 using the assay protocol described below.
RFMS Human PAD4 Functional Assay:
Compounds were solubilized in 100% DMSO to achieve a10 mM compound concentration. Compound stock solutions were stored at RT. A series of dilutions were prepared in DMSO and mixed 8 times with 20 μL mixing volume. Final top concentration of compound in the assay is 50 μM. Final assay conditions were as follows: • Reaction volume: 26 μl • Assay buffer: 25 mM hepes, pH 7.5, 5 mM NaCl, 1 mM DTT, 0.2 mg/ml BSA, 0.01% CHAPS, 50 μM Calcium, and 5 μM TPEN • Final concentrations: 5 nM hPAD4 enzyme, 250 μM BAEE, and 0.5% DMSO • Total incubation time: 30 mins compound and enzyme preincubation at 37° C., 90 min enzyme/substrate reaction, 30 min reaction with phenyl glyoxal at 37° C. • Stop solution: 40 μl 5% TCA in ACN
0.13 μL of compound solution was added to 13 μL of 10 nM PAD4 in assay buffer. After 30 min 13 μl of 500 μM of BAEE was added in 25 mM hepes, pH 7.5, 5 mM NaCl, 1 mM DTT, 0.2 mg/ml BSA, 0.01% CHAPS, 50 μM Calcium, 5 μM TPEN was added and the reaction incubated for 90 min at 37° C. The enzymatic reaction was quenched by addition of 15 μl of 6.1N TCA, 100% Final Concentration is 20%, 35 μl of 8.5 mM phenyl glyoxal (final concentration 4 mM) is then added and the reaction is incubated for 30 min at 37° C.
After 30 minutes the plates are spun down to remove all precipitate. The enzyme reaction was quenched with an equal volume of methanol containing internal standard (modified citrulline). Samples were loaded onto the Rapid Fire RF300 system (Agilent) wherein they were first sipped for 1000 ms and then directly loaded to a C18 separations cartridge using a mixture of acetonitrile containing 0.01% formic acid for 3000 ms desalting. The flow rate of the mobile phase was 1.5 ml/min. Once the samples were eluted from the cartridge, a mobile phase of acetonitrile containing 0.01% formic acid was used to move the samples into the mass spectrometer for 4000 ms at a flow rate of 1.25 ml/min/Sciex API5500 triple quadrupole mass spectrometer (Applied Biosystems) equipped with ESI was used to analyze the peptidyl citrulline and internal standard ions.
MRM transition of product and internal standard were monitored at m/z 424.5 to 350.4 and m/z 293 to 247 respectively. The dwell time for each transition was set at 200 ms, and the ESI voltage was used at 5500 with a source temperature of 400° C. Extracted ion peaks for each transition were integrated using the Rapid Fire Integrator software. Peak area of analyte was normalized with internal standard.).

Chain of human PAD4 (hPAD4) (Q9UM07 whole entry): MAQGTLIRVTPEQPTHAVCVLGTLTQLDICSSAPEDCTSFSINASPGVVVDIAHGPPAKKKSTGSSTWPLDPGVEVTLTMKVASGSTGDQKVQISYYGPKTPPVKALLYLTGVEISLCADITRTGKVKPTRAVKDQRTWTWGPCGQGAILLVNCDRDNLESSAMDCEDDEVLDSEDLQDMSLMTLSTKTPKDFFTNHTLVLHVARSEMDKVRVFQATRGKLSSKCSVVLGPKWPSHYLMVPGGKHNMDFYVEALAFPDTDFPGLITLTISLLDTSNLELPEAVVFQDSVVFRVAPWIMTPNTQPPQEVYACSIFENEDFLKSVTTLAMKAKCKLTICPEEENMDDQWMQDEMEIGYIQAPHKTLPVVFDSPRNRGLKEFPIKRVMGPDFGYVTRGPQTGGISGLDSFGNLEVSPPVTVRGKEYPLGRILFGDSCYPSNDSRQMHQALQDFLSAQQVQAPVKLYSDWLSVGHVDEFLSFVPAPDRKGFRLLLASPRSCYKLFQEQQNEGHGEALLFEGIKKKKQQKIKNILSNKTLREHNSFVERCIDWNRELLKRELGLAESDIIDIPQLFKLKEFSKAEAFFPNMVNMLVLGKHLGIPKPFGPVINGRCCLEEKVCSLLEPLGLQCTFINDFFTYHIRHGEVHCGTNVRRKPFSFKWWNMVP

Row | Compound | IC50 [nM]
1 | COc1cc(C(=O)N2C[C@H]3CC[C@@H]2[C@@H]3N)cc2nc(-c3cc4scc(C5CC(O)C5)c4n3CC3CC3)n(C)c12 (mixture of isomers) [Example 7, cis/trans-((1R,4R,7R)-7-amino-2-azabicyclo[2.2.1]heptan-2-yl)(2-(4-(cyclopropylmethyl)-3-(3-hydroxycyclobutyl)-4H-thieno[3,2-b]pyrrol-5-yl)-7-methoxy-1-methyl-1H-benzo[d]imidazol-5-yl)methanone] | 34
2 | COc1cc(C(=O)N2C[C@H]3CC[C@@H]2[C@@H]3N)cc2nc(-c3cc4scc(C5CCC(O)CC5)c4n3CC3CC3)n(C)c12 (mixture of isomers) [Example 10, cis/trans-((1R,4R,7R)-7-amino-2-azabicyclo[2.2.1]heptan-2-yl)(2-(4-(cyclopropylmethyl)-3-(4-hydroxycyclohexyl)-4H-thieno[3,2-b]pyrrol-5-yl)-7-methoxy-1-methyl-1H-benzo[d]imidazol-5-yl)methanone] | 46
3 | COc1cc(C(=O)N2C[C@H]3CC[C@@H]2[C@@H]3N)cc2nc(-c3cc4scc(C5CCCNC5)c4n3CC3CC3)n(C)c12 (single isomer, unassigned) [Example 9] | 40
4 | COc1cc(C(=O)N2C[C@H]3CC[C@@H]2[C@@H]3N)cc2nc(-c3cc4scc(C5CCCNC5)c4n3CC3CC3)n(C)c12 (single isomer, unassigned) [Example 17] | 79
5 | COc1cc(C(=O)N2C[C@H]3CC[C@@H]2[C@@H]3N)cc2nc(-c3cc4scc(C5CC(O)C5)c4n3CC3CC3)n(C)c12 (single isomer, unassigned) [Example 21] | 38
6 | COc1cc(C(=O)N2C[C@H]3CC[C@@H]2[C@@H]3N)cc2nc(-c3cc4scc(C5CC(O)C5)c4n3CC3CC3)n(C)c12 (single isomer, unassigned) [Example 22] | 82
7 | COc1cc(C(=O)N2C[C@H]3CC[C@@H]2[C@@H]3N)cc2nc(-c3cc4scc(Br)c4n3CC3CC3)n(C)c12 [Example 1, ((1R,4R,7R)-7-amino-2-azabicyclo[2.2.1]heptan-2-yl)(2-(3-bromo-4-(cyclopropylmethyl)-4H-thieno[3,2-b]pyrrol-5-yl)-7-methoxy-1-methyl-1H-benzo[d]imidazol-5-yl)methanone] | 35
8 | COc1cc(C(=O)N2C[C@H]3CC[C@@H]2[C@@H]3N)cc2nc(-c3cc4scc(C5COC5)c4n3CC3CC3)n(C)c12 [Example 2, ((1R,4R,7R)-7-amino-2-azabicyclo[2.2.1]heptan-2-yl)(2-(4-(cyclopropylmethyl)-3-(oxetan-3-yl)-4H-thieno[3,2-b]pyrrol-5-yl)-7-methoxy-1-methyl-1H-benzo[d]imidazol-5-yl)methanone] | 63
9 | COc1cc(C(=O)N2C[C@H]3CC[C@@H]2[C@@H]3N)cc2nc(-c3cc4scc(C5CCNCC5)c4n3CC3CC3)n(C)c12 [Example 3, ((1R,4R,7R)-7-amino-2-azabicyclo[2.2.1]heptan-2-yl)(2-(4-(cyclopropylmethyl)-3-(piperidin-4-yl)-4H-thieno[3,2-b]pyrrol-5-yl)-7-methoxy-1-methyl-1H-benzo[d]imidazol-5-yl)methanone] | 12
10 | COc1cc(C(=O)N2C[C@H]3CC[C@@H]2[C@@H]3N)cc2nc(-c3cc4scc(C5CCN(C(C)=O)CC5)c4n3CC3CC3)n(C)c12 [Example 4, 1-(4-(5-(5-((1R,4R,7R)-7-amino-2-azabicyclo[2.2.1]heptane-2-carbonyl)-7-methoxy-1-methyl-1H-benzo[d]imidazol-2-yl)-4-(cyclopropylmethyl)-4H-thieno[3,2-b]pyrrol-3-yl)piperidin-1-yl)ethan-1-one] | 14
11 | COc1cc(C(=O)N2C[C@H]3CC[C@@H]2[C@@H]3N)cc2nc(-c3cc4scc(C5CC(NC(C)=O)C5)c4n3CC3CC3)n(C)c12 (stereo partly drawn) [Example 5, N-(3-(5-(5-((1R,4R,7R)-7-amino-2-azabicyclo[2.2.1]heptane-2-carbonyl)-7-methoxy-1-methyl-1H-benzo[d]imidazol-2-yl)-4-(cyclopropylmethyl)-4H-thieno[3,2-b]pyrrol-3-yl)cyclobutyl)acetamide] | 19
12 | COc1cc(C(=O)N2C[C@H]3CC[C@@H]2[C@@H]3N)cc2nc(-c3cc4scc(CCC(C)(C)O)c4n3CC3CC3)n(C)c12 [Example 6, ((1R,4R,7R)-7-amino-2-azabicyclo[2.2.1]heptan-2-yl)(2-(4-(cyclopropylmethyl)-3-(3-hydroxy-3-methylbutyl)-4H-thieno[3,2-b]pyrrol-5-yl)-7-methoxy-1-methyl-1H-benzo[d]imidazol-5-yl)methanone] | 32
13 | COc1cc(C(=O)N2C[C@H]3CC[C@@H]2[C@@H]3N)cc2nc(-c3cc4scc(C5CCOCC5)c4n3CC3CC3)n(C)c12 [Example 8, ((1R,4R,7R)-7-amino-2-azabicyclo[2.2.1]heptan-2-yl)(2-(4-(cyclopropylmethyl)-3-(tetrahydro-2H-pyran-4-yl)-4H-thieno[3,2-b]pyrrol-5-yl)-7-methoxy-1-methyl-1H-benzo[d]imidazol-5-yl)methanone] | 40
14 | COc1cc(C(=O)N2C[C@H]3CC[C@@H]2[C@@H]3N)cc2nc(-c3cc4scc(CCC(N)=O)c4n3CC3CC3)n(C)c12 [Example 11, 3-(5-(5-((1R,4R,7R)-7-amino-2-azabicyclo[2.2.1]heptane-2-carbonyl)-7-methoxy-1-methyl-1H-benzo[d]imidazol-2-yl)-4-(cyclopropylmethyl)-4H-thieno[3,2-b]pyrrol-3-yl)propanamide] | 47
15 | COc1cc(C(=O)N2C[C@H]3CC[C@@H]2[C@@H]3N)cc2nc(-c3cc4scc(C5CCOC5)c4n3CC3CC3)n(C)c12 (stereo partly drawn) [Example 12, ((1R,4R,7R)-7-amino-2-azabicyclo[2.2.1]heptan-2-yl)(2-(4-(cyclopropylmethyl)-3-(tetrahydrofuran-3-yl)-4H-thieno[3,2-b]pyrrol-5-yl)-7-methoxy-1-methyl-1H-benzo[d]imidazol-5-yl)methanone] | 49
16 | COc1cc(C(=O)N2C[C@H]3CC[C@@H]2[C@@H]3N)cc2nc(-c3cc4scc(CCN5CCOC5=O)c4n3CC3CC3)n(C)c12 [Example 13, 3-(2-(5-(5-((1R,4R,7R)-7-amino-2-azabicyclo[2.2.1]heptane-2-carbonyl)-7-methoxy-1-methyl-1H-benzo[d]imidazol-2-yl)-4-(cyclopropylmethyl)-4H-thieno[3,2-b]pyrrol-3-yl)ethyl)oxazolidin-2-one] | 54
17 | COc1cc(C(=O)N2C[C@H]3CC[C@@H]2[C@@H]3N)cc2nc(-c3cc4scc(CCCO)c4n3CC3CC3)n(C)c12 [Example 14, ((1R,4R,7R)-7-amino-2-azabicyclo[2.2.1]heptan-2-yl)(2-(4-(cyclopropylmethyl)-3-(3-hydroxypropyl)-4H-thieno[3,2-b]pyrrol-5-yl)-7-methoxy-1-methyl-1H-benzo[d]imidazol-5-yl)methanone] | 56
18 | COc1cc(C(=O)N2C[C@H]3CC[C@@H]2[C@@H]3N)cc2nc(-c3cc4scc(CCC#N)c4n3CC3CC3)n(C)c12 [Example 15, 3-(5-(5-((1R,4R,7R)-7-amino-2-azabicyclo[2.2.1]heptane-2-carbonyl)-7-methoxy-1-methyl-1H-benzo[d]imidazol-2-yl)-4-(cyclopropylmethyl)-4H-thieno[3,2-b]pyrrol-3-yl)propanenitrile] | 59
19 | COc1cc(C(=O)N2C[C@H]3CC[C@@H]2[C@@H]3N)cc2nc(-c3cc4scc(C5CNC5)c4n3CC3CC3)n(C)c12 [Example 16, ((1R,4R,7R)-7-amino-2-azabicyclo[2.2.1]heptan-2-yl)(2-(3-(azetidin-3-yl)-4-(cyclopropylmethyl)-4H-thieno[3,2-b]pyrrol-5-yl)-7-methoxy-1-methyl-1H-benzo[d]imidazol-5-yl)methanone] | 127
20 | COc1cc(C(=O)N2C[C@H]3CC[C@@H]2[C@@H]3N)cc2nc(-c3cc4scc(CC5CNC5)c4n3CC3CC3)n(C)c12 [Example 18, ((1R,4R,7R)-7-amino-2-azabicyclo[2.2.1]heptan-2-yl)(2-(3-(azetidin-3-ylmethyl)-4-(cyclopropylmethyl)-4H-thieno[3,2-b]pyrrol-5-yl)-7-methoxy-1-methyl-1H-benzo[d]imidazol-5-yl)methanone] | 165
